Values after ≈ are worked out from the molar mass of the structure shown.
Assays:
Streptococcus pneumoniae [1] = experiment: fAUC/MIC ratio of Streptococcus pneumoniae ATCC 49619 at 150 mg
Streptococcus pneumoniae [2] = experiment: Bactericidal activity against Streptococcus pneumoniae BSP-2443 with parC S52G, N91D mutation at fAUC/MIC of 51 after 72 hrs in pharmacodynamic model; settings: BSP2443, 72 h
Streptococcus pneumoniae [3] = experiment: Bactericidal activity against Streptococcus pneumoniae ATCC 49619 with Parc S79Y mutation and gyrA S81F mutation at fAUC/MIC of 35 after 96 hrs in pharmacodynamic model; settings: ATCC 49619, 96 h
Streptococcus pneumoniae [4] = experiment: Bactericidal activity against Streptococcus pneumoniae BSP-2443 with parC S52G, N91D mutation and gyrA S114G mutation at fAUC/MIC of 51 after 96 hrs in pharmacodynamic model; settings: BSP2443, 96 h
Streptococcus pneumoniae [5] = experiment: Bactericidal activity against Streptococcus pneumoniae ATCC 49619 at fAUC/MIC of 60 after 48 hrs in pharmacodynamic model; settings: ATCC 49619, 48 h
Streptococcus pneumoniae [6] = experiment: fAUC/MIC ratio of Streptococcus pneumoniae ATCC 49619 at 100 mg
Streptococcus pneumoniae [7] = experiment: Bactericidal activity against Streptococcus pneumoniae BSP-2443 at fAUC/MIC of 51 after 24 to 48 hrs in pharmacodynamic model; settings: BSP2443
Streptococcus pneumoniae [8] = experiment: Bactericidal activity against Streptococcus pneumoniae ATCC 49619 at fAUC/MIC of 60 after 24 hrs in pharmacodynamic model; settings: ATCC 49619, 24 h
Streptococcus pneumoniae [9] = experiment: Bactericidal activity against Streptococcus pneumoniae ATCC 49619 with Parc S79Y mutation at fAUC/MIC of 35 after 24 hrs in pharmacodynamic model; settings: ATCC 49619, 24 h
Streptococcus pneumoniae [10] = experiment: Bactericidal activity against Streptococcus pneumoniae ATCC 49619 at fAUC/MIC of 66 after 24 to 96 hrs in pharmacodynamic model
[11] = Half life at 100 mg/24 hrs regimen in vitro PK model; type: ADME
[12] = Peak free concentration at 400 mg/24 hrs regimen in vitro PK model; type: ADME
[13] = Peak free concentration at 150 mg/24 hrs regimen in vitro PK model; type: ADME
Streptococcus pneumoniae [14] = experiment: fAUC/MIC ratio of Streptococcus pneumoniae BSP-2443 at 235 mg
[15] = Peak free concentration at 200 mg/24 hrs regimen in vitro PK model; type: ADME
Streptococcus pneumoniae [16] = experiment: fAUC/MIC ratio of Streptococcus pneumoniae BSP-2443 at 198 mg
Streptococcus pneumoniae [17] = experiment: Susceptibility of Streptococcus pneumoniae ATCC 49619 by microdilution method; type: functional
Streptococcus pneumoniae [18] = experiment: fAUC/MIC ratio of Streptococcus pneumoniae ATCC 49619 at 175 mg
Streptococcus pneumoniae [19] = experiment: Bactericidal activity against Streptococcus pneumoniae ATCC 49619 at fAUC/MIC of 144 after 24 to 96 hrs in pharmacodynamic model
Streptococcus pneumoniae [20] = experiment: fAUC/MIC ratio of Streptococcus pneumoniae ATCC 49619 at 400 mg
[21] = Half life at 400 mg/24 hrs regimen in vitro PK model; type: ADME
[22] = Half life at 150 mg/24 hrs regimen in vitro PK model; type: ADME
Streptococcus pneumoniae [23] = experiment: Bactericidal activity against Streptococcus pneumoniae ATCC 49619 with Parc S79Y mutation and gyrA S81F mutation at fAUC/MIC of 35 after 72 hrs in pharmacodynamic model; settings: ATCC 49619, 72 h
[24] = Peak free concentration at 175 mg/24 hrs regimen in vitro PK model; type: ADME
[25] = Half life at 175 mg/24 hrs regimen in vitro PK model; type: ADME
Streptococcus pneumoniae [26] = experiment: Bactericidal activity against Streptococcus pneumoniae ATCC 49619 with S79Y Parc mutation and S81F gyrA mutation at fAUC/MIC of 60 after 96 hrs in pharmacodynamic model; settings: ATCC 49619, 96 h
[27] = Peak free concentration at 100 mg/24 hrs regimen in vitro PK model; type: ADME
Streptococcus pneumoniae [28] = experiment: fAUC/MIC ratio of Streptococcus pneumoniae ATCC 49619 at 200 mg
Streptococcus pneumoniae [29] = experiment: Bactericidal activity against Streptococcus pneumoniae ATCC 49619 with Parc S79Y mutation and gyrA S81F mutation at fAUC/MIC of 35 after 48 hrs in pharmacodynamic model; settings: ATCC 49619, 48 h
[30] = Half life at 200 mg/24 hrs regimen in vitro PK model; type: ADME
Streptococcus pneumoniae [31] = experiment: Susceptibility of Streptococcus pneumoniae BSP-2443 by microdilution method; type: functional; settings: BSP2443
Streptococcus pneumoniae [32] = experiment: Bactericidal activity against Streptococcus pneumoniae ATCC 49619 with parC S79Y mutation at fAUC/MIC of 60 after 72 hrs in pharmacodynamic model; settings: ATCC 49619, 72 h
Streptococcus pneumoniae [33] = experiment: Bactericidal activity against Streptococcus pneumoniae ATCC 49619 at fAUC/MIC of 67 after 24 to 96 hrs in pharmacodynamic model
Streptococcus pneumoniae [34] = experiment: Bactericidal activity against Streptococcus pneumoniae BSP-2443 at fAUC/MIC of 62 after 24 to 96 hrs in pharmacodynamic model; settings: BSP2443
Streptococcus pneumoniae [35] = experiment: microbe, parasite or virus in culture; settings: Staphylococcus aureus, ATCC 49619
Streptococcus pneumoniae [36] = experiment: fAUC/MIC ratio of Streptococcus pneumoniae BSP-2443 at 1000 mg
[37] = Half life at 500 mg/24 hrs regimen in vitro PK model; type: ADME
[38] = Half life at 1000 mg/24 hrs regimen in vitro PK model; type: ADME
Streptococcus pneumoniae [39] = experiment: fAUC/MIC ratio of Streptococcus pneumoniae BSP-2443 at 875 mg
Streptococcus pneumoniae [40] = experiment: microbe, parasite or virus in culture; settings: Staphylococcus aureus, BSP2443
Streptococcus pneumoniae [41] = experiment: fAUC/MIC ratio of Streptococcus pneumoniae ATCC 49610 at 875 mg
Streptococcus pneumoniae [42] = experiment: microbe, parasite or virus in culture; settings: Staphylococcus aureus, BSP2443, 96 h
Streptococcus pneumoniae [43] = experiment: fAUC/MIC ratio of Streptococcus pneumoniae ATCC 49610 at 812.5 mg
Streptococcus pneumoniae [44] = experiment: microbe, parasite or virus in culture; settings: Staphylococcus aureus, ATCC 49619; remark: listed apart in the source
[45] = Peak free concentration at 500 mg/24 hrs regimen in vitro PK model; type: ADME
Streptococcus pneumoniae [46] = experiment: microbe, parasite or virus in culture; settings: Staphylococcus aureus, BSP2443, 96 h; remark: listed apart in the source
Streptococcus pneumoniae [47] = experiment: microbe, parasite or virus in culture; settings: Staphylococcus aureus, BSP2443; remark: listed apart in the source
Streptococcus pneumoniae [48] = experiment: microbe, parasite or virus in culture; settings: Staphylococcus aureus, ATCC 49619, 24 h
Streptococcus pneumoniae [49] = experiment: fAUC/MIC ratio of Streptococcus pneumoniae ATCC 49610 at 500 mg
Streptococcus pneumoniae [50] = experiment: fAUC/MIC ratio of Streptococcus pneumoniae BSP-2443 at 812.5 mg
Streptococcus pneumoniae [51] = experiment: fAUC/MIC ratio of Streptococcus pneumoniae BSP-2443 at 937.5 mg
Streptococcus pneumoniae [52] = experiment: microbe, parasite or virus in culture; settings: Staphylococcus aureus, ATCC 49619; remark: listed apart in the source
[53] = Peak free concentration at 843.5 mg/24 hrs regimen in vitro PK model; type: ADME
Streptococcus pneumoniae [54] = experiment: microbe, parasite or virus in culture; settings: Staphylococcus aureus, BSP2443; remark: listed apart in the source
Streptococcus pneumoniae [55] = experiment: fAUC/MIC ratio of Streptococcus pneumoniae ATCC 49610 at 843.5 mg
Streptococcus pneumoniae [56] = experiment: microbe, parasite or virus in culture; settings: Staphylococcus aureus, BSP2443; remark: listed apart in the source
Streptococcus pneumoniae [57] = experiment: microbe, parasite or virus in culture; settings: Staphylococcus aureus, ATCC 49619, 24 h; remark: listed apart in the source
Streptococcus pneumoniae [58] = experiment: microbe, parasite or virus in culture; settings: Staphylococcus aureus, BSP2443; remark: listed apart in the source
Streptococcus pneumoniae [59] = experiment: microbe, parasite or virus in culture; settings: Staphylococcus aureus, ATCC 49619, 24 h; remark: listed apart in the source
[60] = Peak free concentration at 875 mg/24 hrs regimen in vitro PK model; type: ADME
Streptococcus pneumoniae [61] = experiment: fAUC/MIC ratio of Streptococcus pneumoniae BSP-2443 at 750 mg
Streptococcus pneumoniae [62] = experiment: microbe, parasite or virus in culture; settings: Staphylococcus aureus, ATCC 49619; remark: listed apart in the source
[63] = Peak free concentration at 812.5 mg/24 hrs regimen in vitro PK model; type: ADME
[64] = Peak free concentration at 1000 mg/24 hrs regimen in vitro PK model; type: ADME
[65] = Peak free concentration at 750 mg/24 hrs regimen in vitro PK model; type: ADME
Streptococcus pneumoniae [66] = experiment: microbe, parasite or virus in culture; settings: Staphylococcus aureus, BSP2443; remark: listed apart in the source
[67] = Half life at 875 mg/24 hrs regimen in vitro PK model; type: ADME
Streptococcus pneumoniae [68] = experiment: microbe, parasite or virus in culture; settings: Staphylococcus aureus, ATCC 49619; remark: listed apart in the source
Streptococcus pneumoniae [69] = experiment: fAUC/MIC ratio of Streptococcus pneumoniae BSP-2443 at 843.5 mg
[70] = Half life at 750 mg/24 hrs regimen in vitro PK model; type: ADME
Streptococcus pneumoniae [71] = experiment: microbe, parasite or virus in culture; settings: Staphylococcus aureus, ATCC 49619; remark: listed apart in the source
[72] = Half life at 843.5 mg/24 hrs regimen in vitro PK model; type: ADME
[73] = Half life at 812.5 mg/24 hrs regimen in vitro PK model; type: ADME
Streptococcus pneumoniae [74] = experiment: fAUC/MIC ratio of Streptococcus pneumoniae ATCC 49610 at 1000 mg
Streptococcus pneumoniae [75] = experiment: fAUC/MIC ratio of Streptococcus pneumoniae ATCC 49610 at 750 mg

COc1c(N2CCNC(C)C2)c(F)cc2c(=O)c(C(=O)O)cn(C3CC3)c12 (configuration not stated) [GATIFLOXACIN]
fAUC/MIC (Streptococcus pneumoniae [1]): 60 | MIC (Streptococcus pneumoniae [2]): 0.38 µg/mL | MIC (Streptococcus pneumoniae [3]): 8 µg/mL | MIC (Streptococcus pneumoniae [4]): 3 µg/mL | MIC (Streptococcus pneumoniae [5]): 0.25 µg/mL | fAUC/MIC (Streptococcus pneumoniae [6]): 35 | MIC (Streptococcus pneumoniae [7]): 0.25 µg/mL | MIC (Streptococcus pneumoniae [8]): 0.25 µg/mL | MIC (Streptococcus pneumoniae [9]): 0.38 µg/mL | MIC (Streptococcus pneumoniae [10]): 0.19 µg/mL | half-life [11]: 7.65 h | Activity [12]: 2.79 µg/mL | Activity [13]: 1.13 µg/mL | fAUC/MIC (Streptococcus pneumoniae [14]): 62 | Activity [15]: 1.38 µg/mL | fAUC/MIC (Streptococcus pneumoniae [16]): 51 | MIC (Streptococcus pneumoniae [17]): 0.025 µg/mL (≈ 0.0666 µM) | fAUC/MIC (Streptococcus pneumoniae [18]): 66 | MIC (Streptococcus pneumoniae [19]): 0.19 µg/mL | fAUC/MIC (Streptococcus pneumoniae [20]): 144 | half-life [21]: 8.01 h | half-life [22]: 8.16 h | MIC (Streptococcus pneumoniae [23]): 6 µg/mL | Activity [24]: 1.22 µg/mL | half-life [25]: 7.57 h | MIC (Streptococcus pneumoniae [26]): 4 µg/mL | Activity [27]: 0.71 µg/mL | fAUC/MIC (Streptococcus pneumoniae [28]): 67 | MIC (Streptococcus pneumoniae [29]): 6 µg/mL | half-life [30]: 8.65 h | MIC (Streptococcus pneumoniae [31]): 0.025 µg/mL (≈ 0.0666 µM) | MIC (Streptococcus pneumoniae [32]): 0.75 µg/mL | MIC (Streptococcus pneumoniae [33]): 0.19 µg/mL | MIC (Streptococcus pneumoniae [34]): 0.25 µg/mL

C[C@H]1COc2c(N3CCN(C)CC3)c(F)cc3c(=O)c(C(=O)O)cn1c23.C[C@H]1COc2c(N3CCN(C)CC3)c(F)cc3c(=O)c(C(=O)O)cn1c23.O [LEVOFLOXACIN]
MIC (Streptococcus pneumoniae [35]): > 32 µg/mL | fAUC/MIC (Streptococcus pneumoniae [36]): 117 | half-life [37]: 8.01 h | half-life [38]: 7.85 h | fAUC/MIC (Streptococcus pneumoniae [39]): 94 | MIC (Streptococcus pneumoniae [40]): 0.75 µg/mL | fAUC/MIC (Streptococcus pneumoniae [41]): 97 | MIC (Streptococcus pneumoniae [42]): > 32 µg/mL | fAUC/MIC (Streptococcus pneumoniae [43]): 82 | MIC (Streptococcus pneumoniae [44]): 0.75 µg/mL | Activity [45]: 4.1 µg/mL | MIC (Streptococcus pneumoniae [46]): 2 µg/mL | MIC (Streptococcus pneumoniae [47]): 0.75 µg/mL | MIC (Streptococcus pneumoniae [48]): 0.75 µg/mL | fAUC/MIC (Streptococcus pneumoniae [49]): 55 | fAUC/MIC (Streptococcus pneumoniae [50]): 83 | fAUC/MIC (Streptococcus pneumoniae [51]): 104 | MIC (Streptococcus pneumoniae [52]): > 32 µg/mL | Activity [53]: 7.09 µg/mL | MIC (Streptococcus pneumoniae [54]): 0.75 µg/mL | fAUC/MIC (Streptococcus pneumoniae [55]): 89 | MIC (Streptococcus pneumoniae [56]): 0.75 µg/mL | MIC (Streptococcus pneumoniae [57]): 1.5 µg/mL | MIC (Streptococcus pneumoniae [58]): 0.75 µg/mL | MIC (Streptococcus pneumoniae [17]): 0.025 µg/mL | MIC (Streptococcus pneumoniae [59]): 1.5 µg/mL | Activity [60]: 7.19 µg/mL | fAUC/MIC (Streptococcus pneumoniae [61]): 75 | MIC (Streptococcus pneumoniae [62]): 0.75 µg/mL | Activity [63]: 6.78 µg/mL | Activity [64]: 8.75 µg/mL | Activity [65]: 6.13 µg/mL | MIC (Streptococcus pneumoniae [66]): > 32 µg/mL | half-life [67]: 8.02 h | MIC (Streptococcus pneumoniae [68]): 0.75 µg/mL | fAUC/MIC (Streptococcus pneumoniae [69]): 86 | half-life [70]: 7.52 h | MIC (Streptococcus pneumoniae [71]): > 32 µg/mL | half-life [72]: 6.98 h | half-life [73]: 7.06 h | fAUC/MIC (Streptococcus pneumoniae [74]): 114 | MIC (Streptococcus pneumoniae [31]): 0.025 µg/mL | fAUC/MIC (Streptococcus pneumoniae [75]): 79

Reference: ChEMBL document CHEMBL1147116 (Antimicrob Agents Chemother, 2007)
